Read-outs that look alike come from different tables or passages of the source.
Columns and labels:
6 Hz-induced seizures [1] = assay: 6 Hz seizure test in mice, with isobolographic analysis of drug combinations; conditions: for anticonvulsant effects against 6 Hz seizure: i.p., mice
epileptic seizures = assay: ED50 of the individual compounds, seizure model not given (various models of the rat and the mouse); assay type: in vivo; conditions: ip
Method: The skilled person may determine the ED50 values by methods known in the art. It is preferred that the ED50 values are determined by preclinical or/and clinical trials. Published ED50 values may also be used. […] Tables 5 and 6 disclose specific ED50 values obtained in various models of the rat and the mouse. A person skilled in the art knows that in a particular model, among different species, ED50 values show a variation by a factor of up to 5 or even larger.

[2] = tested on: lithium-pilocarpine-induced status epilepticus; conditions: Bialer et al., 2001, 2002; cited from earlier work
mouse cortical neurons = mouse cortical neurons (Bialer et al., 2002); cited from earlier work
[3] = tested on: drug metabolizing enzymes; assay: Inhibition, induction and metabolism by drug metabolizing enzymes; conditions: a large variety of enzymes
[4] = tested on: cobalt-homocysteine-induced status epilepticus; conditions: Bialer et al., 2001, 2002; cited from earlier work
[5] = tested on: refractory self-sustaining status epilepticus; conditions: in vivo; cited from earlier work
[6] = tested on: pattern of neuronal activation; conditions: Duncan and Kohn (2004); cited from earlier work
[7] = tested on: 6 Hz psychomotor seizures; conditions: determined in the anticonvulsant drug screening program of NINDS; cited from earlier work
[8] = Clinical population pharmacokinetic analysis
6 Hz-induced seizures [9] = conditions: literature observation (Gower et al., 1993; Klitgaard et al., 1998); cited from earlier work
[10] = approximate value, model not stated, read-out: ED50

NC(=O)N1c2ccccc2C=Cc2ccccc21 [CBZ, carbamazepine]
anticonvulsant effects against 6 Hz seizure (6 Hz-induced seizures [1]; drugs administered alone): dose-dependent anticonvulsant effects | ED50 (epileptic seizures; [10]): ~50 mg/kg

NCC1(CC(=O)O)CCCCC1 [GBP, gabapentin]
anticonvulsant effects against 6 Hz seizure (6 Hz-induced seizures [1]; drugs administered alone): dose-dependent anticonvulsant effects | ED50 (epileptic seizures): ~220 mg/kg

COC[C@@H](NC(C)=O)C(=O)NCc1ccccc1 [LCM, R-2-acetamido-N-benzyl-3-methoxypropionamide]
efficacy against lithium-pilocarpine-induced status epilepticus [2]: effective | GABA currents (mouse cortical neurons): increased | glutamate transmission (mouse cortical neurons): inhibited glutamate transmission indirectly | inhibition or induction of drug metabolizing enzymes [3]: does not inhibit or induce | efficacy against cobalt-homocysteine-induced status epilepticus [4]: effective | ED50 (6 Hz-induced seizures [1]; Mus musculus, ip, 0.5 h): 10.1 mg/kg | anticonvulsant effects against 6 Hz seizure (6 Hz-induced seizures [1]; drugs administered alone): dose-dependent anticonvulsant effects | potency compared to the other tested AEDs (6 Hz-induced seizures [1]; drugs administered alone, lowest ED50): highest potency | activity against refractory self-sustaining status epilepticus [5]: active | specific pattern of neuronal activation [6]: attenuated | ED50 (epileptic seizures): ~10 mg/kg | ED50 [7]: 9.9 mg/kg | effect of LCM on plasma levels of AEDs or vice versa [8]: no evidence for any effect

CC[C@@H](C(N)=O)N1CCCC1=O [LEV, levetiracetam]
anticonvulsant effects against 6 Hz seizure (6 Hz-induced seizures [1]; drugs administered alone): dose-dependent anticonvulsant effects | ED50 (epileptic seizures): ~20 mg/kg | protection in the 6Hz test (6 Hz-induced seizures [9]): complete protection

Nc1nnc(-c2cccc(Cl)c2Cl)c(N)n1 [LTG, lamotrigine]
anticonvulsant effects against 6 Hz seizure (6 Hz-induced seizures [1]; drugs administered alone): dose-dependent anticonvulsant effects | ED50 (epileptic seizures): ~85 mg/kg

O=C1NC(=O)C(c2ccccc2)(c2ccccc2)N1 [PHT, phenytoin]
anticonvulsant effects against 6 Hz seizure (6 Hz-induced seizures [1]; drugs administered alone): dose-dependent anticonvulsant effects

CC1(C)O[C@@H]2[C@@H](CO[C@@]3(COS(N)(=O)=O)OC(C)(C)O[C@@H]23)O1 [TPM, topiramate]
anticonvulsant effects against 6 Hz seizure (6 Hz-induced seizures [1]; drugs administered alone): dose-dependent anticonvulsant effects | ED50 (epileptic seizures; [10]): ~300 mg/kg

— patent publication EP1925314A1, “Pharmaceutical composition with synergistic anticonvulsant effect” (SCHWARZ PHARMA AG, priority 2006, dated 2008)
